Literature values in patent US20040106141A1, “Methods and materials for examining pathways associated with glioblastoma progression” (The Regents of the University of California, priority 2002, published 2004).

System: SKMG-3 cells
Conditions: unstimulated SKMG-3 cells

CNc1cc2c(Nc3cccc(Br)c3)ncnc2cn1 [PD158780]
constitutive phosphorylation of Erk: reduces
constitutive phosphorylation of the receptor (EGFR) (GBM cell line with EGFR gene amplification): reduces
